{"source": "patent US20210145863A1", "about": "“LUBRICATED SUBSTRATES COMPRISING LAMBDA-CARRAGEENAN” (priority 2018, published 2021)", "origin": "cited, not measured here", "system": "HPV", "conditions": "in vitro (Buck, C. B., et al.)", "data": [{"substance": "lambda-carrageenan", "values": [{"measurement": "Activity against HPV", "value": "active"}]}]}
